# Values of other authors in publication PMC6257630, “Photoactivatable Cell-Selective Dinuclear trans-Diazidoplatinum(IV) Anticancer Prodrugs” (Inorganic Chemistry, 2018).
# System: cisplatin-resistant A2780cis cells
# Design: method as in PMID 20677309
# Conditions: irradiation with UVA (365 nm); cited from earlier work
substance,measurement,value
"trans,trans,trans-[Pt(N3)2(OH)2(py)2] [FM-190]",IC50,14.5 µM
